Source: patent US7473709B2, “11β-benzaldoxime derivatives of D-homooestra-4,9-dien-3-ones” (Bayer Schering Pharma AG, priority 2005, dated 2009)

Legend:
[1] = molecular target: T1, Progesterone receptor (PR) (Oryctolagus cuniculus, UniProt P06186); assay: Receptor binding affinity, progesterone receptor (competitive binding with 3H-ORG 2058); details: uterus cytosol of oestradiol-primed rabbit; tracer 3H-ORG 2058 5 nM; reference progesterone = 100%
T1 construct: receptors in the cytosol from animal target organs; from tissue; host or cells: uterus cytosol of oestradiol-primed rabbit
T1 sequence (P06186 1-930): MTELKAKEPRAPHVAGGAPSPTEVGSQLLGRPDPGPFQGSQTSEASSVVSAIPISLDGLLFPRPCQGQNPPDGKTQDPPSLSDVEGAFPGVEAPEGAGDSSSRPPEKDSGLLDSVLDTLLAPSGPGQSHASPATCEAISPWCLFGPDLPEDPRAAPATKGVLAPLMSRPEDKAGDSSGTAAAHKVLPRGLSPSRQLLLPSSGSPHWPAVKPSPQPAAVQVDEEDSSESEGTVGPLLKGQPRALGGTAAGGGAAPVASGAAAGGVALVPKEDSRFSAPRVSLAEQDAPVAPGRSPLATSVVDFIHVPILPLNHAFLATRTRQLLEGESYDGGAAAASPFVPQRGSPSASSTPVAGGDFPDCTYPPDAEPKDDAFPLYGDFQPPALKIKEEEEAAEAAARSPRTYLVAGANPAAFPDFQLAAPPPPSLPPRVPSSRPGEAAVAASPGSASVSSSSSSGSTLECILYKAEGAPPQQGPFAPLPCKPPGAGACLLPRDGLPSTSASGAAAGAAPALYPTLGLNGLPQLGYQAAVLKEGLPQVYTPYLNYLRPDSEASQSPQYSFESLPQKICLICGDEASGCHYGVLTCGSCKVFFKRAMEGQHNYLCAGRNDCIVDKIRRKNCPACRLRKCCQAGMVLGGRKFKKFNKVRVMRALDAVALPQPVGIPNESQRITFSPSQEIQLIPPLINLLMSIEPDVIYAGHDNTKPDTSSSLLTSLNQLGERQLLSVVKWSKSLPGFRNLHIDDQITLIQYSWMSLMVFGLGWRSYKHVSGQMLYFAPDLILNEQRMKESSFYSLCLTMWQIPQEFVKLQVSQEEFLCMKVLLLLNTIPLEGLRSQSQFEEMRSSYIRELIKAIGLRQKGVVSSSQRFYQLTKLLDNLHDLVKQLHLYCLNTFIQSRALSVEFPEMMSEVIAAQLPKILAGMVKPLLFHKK
Protocol: (§1) The receptor binding affinity was determined by the competitive binding of a specifically binding ^3H-labelled hormone (tracer) and the test compound to receptors in the cytosol from animal target organs, with the aim of achieving receptor saturation and reaction equilibrium.
(§2) The tracer and increasing concentrations of the test compound (competitor) were coincubated with the receptor-containing cytosol fraction at 0-4° C. for 18 h. After separation of the unbound tracer with a carbon/dextran suspension, the proportion of receptor-bound tracer was measured for each concentration and the IC50 was determined from the concentration series.
(§3) The following incubation conditions were chosen for the individual receptor types:
Uterus cytosol of the oestradiol-primed rabbit, homogenized in TED buffer (20 mM Tris/HCI, pH 7.4; 1 mM ethylenediaminetetraacetate, 2 mM dithiothreitol) containing 250 mM sucrose; kept at −30° C.

[2] = molecular target: T2, Glucocorticoid receptor (GR) (Rattus norvegicus, UniProt P06536); assay: Receptor binding affinity, glucocorticoid receptor (competitive binding with 3H-dexamethasone); details: for Glucocorticoid receptor (GR) dexamethasone = 100% (relative molar binding affinity, RBA): thymus cytosol of adrenalectomized rat, tracer 3H-dexamethasone 20 nM, reference dexamethasone = 100%
T2 construct: receptors in the cytosol from animal target organs; from tissue; host or cells: thymus cytosol of adrenalectomized rat
T2 sequence (P06536 1-795): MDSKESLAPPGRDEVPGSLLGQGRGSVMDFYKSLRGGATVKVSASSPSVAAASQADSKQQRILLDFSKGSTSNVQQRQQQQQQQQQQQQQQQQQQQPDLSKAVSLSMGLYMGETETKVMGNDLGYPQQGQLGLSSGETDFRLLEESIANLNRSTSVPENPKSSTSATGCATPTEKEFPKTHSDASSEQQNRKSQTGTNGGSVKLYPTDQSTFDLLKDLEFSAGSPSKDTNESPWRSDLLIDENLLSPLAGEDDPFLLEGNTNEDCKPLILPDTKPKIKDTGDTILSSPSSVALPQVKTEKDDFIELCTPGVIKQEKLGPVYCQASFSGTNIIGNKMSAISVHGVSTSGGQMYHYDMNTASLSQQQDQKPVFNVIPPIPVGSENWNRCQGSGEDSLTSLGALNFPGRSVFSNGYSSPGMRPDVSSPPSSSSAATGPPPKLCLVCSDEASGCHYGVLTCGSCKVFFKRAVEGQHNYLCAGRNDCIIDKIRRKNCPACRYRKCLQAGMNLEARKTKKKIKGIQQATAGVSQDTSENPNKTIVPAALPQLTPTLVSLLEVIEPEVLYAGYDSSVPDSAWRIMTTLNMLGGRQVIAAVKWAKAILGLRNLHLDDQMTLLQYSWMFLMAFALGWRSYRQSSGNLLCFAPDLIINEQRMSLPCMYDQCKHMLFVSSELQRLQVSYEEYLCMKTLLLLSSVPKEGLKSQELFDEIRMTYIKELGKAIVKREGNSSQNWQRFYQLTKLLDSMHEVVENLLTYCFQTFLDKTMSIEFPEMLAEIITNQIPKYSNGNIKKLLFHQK
Protocol: as §1, §2, §3
Thymus cytosol of the adrenalectomized rat, thymi stored at −30° C.; buffer: TED. Tracer: ^3H-dexamethasone, 20 nM; reference substance: dexamethasone.

Molecule	Progesterone receptor (PR) progesterone = 100% (relative molar binding affinity, RBA) [1]	Ratio GR/PR ([2]; ratio of RBA at GR to RBA at PR)	Glucocorticoid receptor (GR) dexamethasone = 100% (relative molar binding affinity, RBA) [2]
4-[17aβ-Methoxy-17aα-(methoxymethyl)-17a-homo-3-oxooestra-4,9-dien-11β-yl]benzaldehyde (1E)-[O-(ethylamino)carbonyl]oxime [Example 6]	158%	2.8	450%
CC#C[C@]1(O)CC[C@H]2[C@@H]3CCC4=CC(=O)CCC4=C3[C@@H](c3ccc(N(C)C)cc3)C[C@@]21C [RU 38486, mifepristone]			683%
